Experimental findings from PubChem BioAssay AID2060497 (Molecular Pharmacology Branch, DTP, NCI, 2025) are described below.
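Also: spheroids exposed to compounds for one week before readout; percent viability relative to DMSO vehicle wells taken as 100%.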

The first assay deals with 317291-083-R-J1-PDC complex spheroids, viability. In words: Anticancer human tumor 317291-083-R-J1-PDC patient-derived soft tissue sarcoma cell line growth inhibition [GQUAD]. As to conditions: second compound 0.0316 µM; first compound 3.16 µM; stronger effect = lower value. Summed up:
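Tumor cells were grown as complex spheroids with HUVEC endothelial cells and mesenchymal stem cells as stroma. G-quadruplex stabilizers were combined with targeted agents over half-log dilutions from near the clinical Cmax, or from 10 microM.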
As usually defined, the viability, T/C is the ratio of treated to control. As to `Nc1ccn(C2OC(CO)C(O)C2(F)F)c(=O)n1` (configuration not stated) + Cc1cnc(CNC(=O)c2c(=O)c3ccc(N4CCCN(C)CC4)nc3n3c2sc2ccccc23)cn1, the viability, T/C was 8.79%.

Consider `COc1cc(C2c3cc4c(cc3C(OC3OC5COC(C)OC5C(O)C3O)C3COC(=O)C23)OCO4)cc(OC)c1O` (configuration not stated) + CN(C)c1ccc(Nc2c3ccc(NC(=O)CCN4CCCC4)cc3nc3cc(NC(=O)CCN4CCCC4)ccc23)cc1, for which the viability, T/C is 19.4%.

The assay is the same for the next values; noted with them: second compound 0.0316 µM; first compound 10 µM; stronger effect = lower value.
Regarding `CC1COCCN1c1cc(C2(O)CC3CCC(C2)O3)c2cnn(-c3ccn[nH]3)c2n1` (configuration not stated) + CN(C)c1ccc(Nc2c3ccc(NC(=O)CCN4CCCC4)cc3nc3cc(NC(=O)CCN4CCCC4)ccc23)cc1, the viability, T/C is 2.01%.

Turning to `COc1cccc2c1C(=O)c1c(O)c3c(c(O)c1C2=O)CC(O)(C(=O)CO)CC3OC1CC(N)C(O)C(C)O1` (configuration not stated) + Cc1cnc(CNC(=O)c2c(=O)c3ccc(N4CCCN(C)CC4)nc3n3c2sc2ccccc23)cn1, the viability, T/C is 4.21%.

In the case of `Nc1ccn(C2OC(CO)C(O)C2(F)F)c(=O)n1` (configuration not stated) + Cc1cnc(CNC(=O)c2c(=O)c3ccc(N4CCCN(C)CC4)nc3n3c2sc2ccccc23)cn1, the viability, T/C is 6.85%.

Regarding `COc1cc(C2c3cc4c(cc3C(OC3OC5COC(C)OC5C(O)C3O)C3COC(=O)C23)OCO4)cc(OC)c1O` (configuration not stated) + CN(C)c1ccc(Nc2c3ccc(NC(=O)CCN4CCCC4)cc3nc3cc(NC(=O)CCN4CCCC4)ccc23)cc1, the viability, T/C was 21.7%.

The same assay, now with this note: second compound 0.1 µM; first compound 0.0316 µM; stronger effect = lower value.
As to `CC1COCCN1c1cc(C2(O)CC3CCC(C2)O3)c2cnn(-c3ccn[nH]3)c2n1` (configuration not stated) + CN(C)c1ccc(Nc2c3ccc(NC(=O)CCN4CCCC4)cc3nc3cc(NC(=O)CCN4CCCC4)ccc23)cc1, the viability, T/C is 50.5%.

In the case of `COc1cccc2c1C(=O)c1c(O)c3c(c(O)c1C2=O)CC(O)(C(=O)CO)CC3OC1CC(N)C(O)C(C)O1` (configuration not stated) + Cc1cnc(CNC(=O)c2c(=O)c3ccc(N4CCCN(C)CC4)nc3n3c2sc2ccccc23)cn1, the viability, T/C was 62.7%.

Turning to `Nc1ccn(C2OC(CO)C(O)C2(F)F)c(=O)n1` (configuration not stated) + Cc1cnc(CNC(=O)c2c(=O)c3ccc(N4CCCN(C)CC4)nc3n3c2sc2ccccc23)cn1, the viability, T/C is 43.9%.

`COc1cc(C2c3cc4c(cc3C(OC3OC5COC(C)OC5C(O)C3O)C3COC(=O)C23)OCO4)cc(OC)c1O` (configuration not stated) + CN(C)c1ccc(Nc2c3ccc(NC(=O)CCN4CCCC4)cc3nc3cc(NC(=O)CCN4CCCC4)ccc23)cc1: the viability, T/C was 92.1%.

The assay is the same for the next values; noted with them: second compound 0.1 µM; first compound 0.1 µM; stronger effect = lower value.
As for `CC1COCCN1c1cc(C2(O)CC3CCC(C2)O3)c2cnn(-c3ccn[nH]3)c2n1` (configuration not stated) + CN(C)c1ccc(Nc2c3ccc(NC(=O)CCN4CCCC4)cc3nc3cc(NC(=O)CCN4CCCC4)ccc23)cc1, the viability, T/C was 25.5%.

For `COc1cccc2c1C(=O)c1c(O)c3c(c(O)c1C2=O)CC(O)(C(=O)CO)CC3OC1CC(N)C(O)C(C)O1` (configuration not stated) + Cc1cnc(CNC(=O)c2c(=O)c3ccc(N4CCCN(C)CC4)nc3n3c2sc2ccccc23)cn1, the viability, T/C was 24%.

As to `Nc1ccn(C2OC(CO)C(O)C2(F)F)c(=O)n1` (configuration not stated) + Cc1cnc(CNC(=O)c2c(=O)c3ccc(N4CCCN(C)CC4)nc3n3c2sc2ccccc23)cn1, the viability, T/C is 39.9%.

With `COc1cc(C2c3cc4c(cc3C(OC3OC5COC(C)OC5C(O)C3O)C3COC(=O)C23)OCO4)cc(OC)c1O` (configuration not stated) + CN(C)c1ccc(Nc2c3ccc(NC(=O)CCN4CCCC4)cc3nc3cc(NC(=O)CCN4CCCC4)ccc23)cc1, the viability, T/C is 86%.

The same assay, now with this note: second compound 0.1 µM; first compound 0.316 µM; stronger effect = lower value.
Take `CC1COCCN1c1cc(C2(O)CC3CCC(C2)O3)c2cnn(-c3ccn[nH]3)c2n1` (configuration not stated) + CN(C)c1ccc(Nc2c3ccc(NC(=O)CCN4CCCC4)cc3nc3cc(NC(=O)CCN4CCCC4)ccc23)cc1: the viability, T/C was 18.2%.

For the molecule `COc1cccc2c1C(=O)c1c(O)c3c(c(O)c1C2=O)CC(O)(C(=O)CO)CC3OC1CC(N)C(O)C(C)O1` (configuration not stated) + Cc1cnc(CNC(=O)c2c(=O)c3ccc(N4CCCN(C)CC4)nc3n3c2sc2ccccc23)cn1, the viability, T/C was 18.2%.

For `Nc1ccn(C2OC(CO)C(O)C2(F)F)c(=O)n1` (configuration not stated) + Cc1cnc(CNC(=O)c2c(=O)c3ccc(N4CCCN(C)CC4)nc3n3c2sc2ccccc23)cn1, the viability, T/C was 11.6%.

On to `COc1cc(C2c3cc4c(cc3C(OC3OC5COC(C)OC5C(O)C3O)C3COC(=O)C23)OCO4)cc(OC)c1O` (configuration not stated) + CN(C)c1ccc(Nc2c3ccc(NC(=O)CCN4CCCC4)cc3nc3cc(NC(=O)CCN4CCCC4)ccc23)cc1, for which the viability, T/C was 50.4%.

Staying with this assay, now noted: second compound 0.1 µM; first compound 1 µM; stronger effect = lower value.
In the case of `CC1COCCN1c1cc(C2(O)CC3CCC(C2)O3)c2cnn(-c3ccn[nH]3)c2n1` (configuration not stated) + CN(C)c1ccc(Nc2c3ccc(NC(=O)CCN4CCCC4)cc3nc3cc(NC(=O)CCN4CCCC4)ccc23)cc1, the viability, T/C was 15.3%.

Turning to `COc1cccc2c1C(=O)c1c(O)c3c(c(O)c1C2=O)CC(O)(C(=O)CO)CC3OC1CC(N)C(O)C(C)O1` (configuration not stated) + Cc1cnc(CNC(=O)c2c(=O)c3ccc(N4CCCN(C)CC4)nc3n3c2sc2ccccc23)cn1, the viability, T/C is 8.39%.

As for `Nc1ccn(C2OC(CO)C(O)C2(F)F)c(=O)n1` (configuration not stated) + Cc1cnc(CNC(=O)c2c(=O)c3ccc(N4CCCN(C)CC4)nc3n3c2sc2ccccc23)cn1, the viability, T/C was 15.9%.

With `COc1cc(C2c3cc4c(cc3C(OC3OC5COC(C)OC5C(O)C3O)C3COC(=O)C23)OCO4)cc(OC)c1O` (configuration not stated) + CN(C)c1ccc(Nc2c3ccc(NC(=O)CCN4CCCC4)cc3nc3cc(NC(=O)CCN4CCCC4)ccc23)cc1, the viability, T/C was 29.6%.

Still in this assay, the particulars now being: second compound 0.1 µM; first compound 3.16 µM; stronger effect = lower value.
`CC1COCCN1c1cc(C2(O)CC3CCC(C2)O3)c2cnn(-c3ccn[nH]3)c2n1` (configuration not stated) + CN(C)c1ccc(Nc2c3ccc(NC(=O)CCN4CCCC4)cc3nc3cc(NC(=O)CCN4CCCC4)ccc23)cc1: the viability, T/C is 11.1%.

`COc1cccc2c1C(=O)c1c(O)c3c(c(O)c1C2=O)CC(O)(C(=O)CO)CC3OC1CC(N)C(O)C(C)O1` (configuration not stated) + Cc1cnc(CNC(=O)c2c(=O)c3ccc(N4CCCN(C)CC4)nc3n3c2sc2ccccc23)cn1: the viability, T/C was 3.34%.

Turning to `Nc1ccn(C2OC(CO)C(O)C2(F)F)c(=O)n1` (configuration not stated) + Cc1cnc(CNC(=O)c2c(=O)c3ccc(N4CCCN(C)CC4)nc3n3c2sc2ccccc23)cn1, the viability, T/C was 8.93%.

For `COc1cc(C2c3cc4c(cc3C(OC3OC5COC(C)OC5C(O)C3O)C3COC(=O)C23)OCO4)cc(OC)c1O` (configuration not stated) + CN(C)c1ccc(Nc2c3ccc(NC(=O)CCN4CCCC4)cc3nc3cc(NC(=O)CCN4CCCC4)ccc23)cc1, the viability, T/C is 15.7%.

Staying with this assay, now noted: second compound 0.1 µM; first compound 10 µM; stronger effect = lower value.
`CC1COCCN1c1cc(C2(O)CC3CCC(C2)O3)c2cnn(-c3ccn[nH]3)c2n1` (configuration not stated) + CN(C)c1ccc(Nc2c3ccc(NC(=O)CCN4CCCC4)cc3nc3cc(NC(=O)CCN4CCCC4)ccc23)cc1: the viability, T/C was 3.17%.

On to `COc1cccc2c1C(=O)c1c(O)c3c(c(O)c1C2=O)CC(O)(C(=O)CO)CC3OC1CC(N)C(O)C(C)O1` (configuration not stated) + Cc1cnc(CNC(=O)c2c(=O)c3ccc(N4CCCN(C)CC4)nc3n3c2sc2ccccc23)cn1, for which the viability, T/C was 2.66%.

Regarding `Nc1ccn(C2OC(CO)C(O)C2(F)F)c(=O)n1` (configuration not stated) + Cc1cnc(CNC(=O)c2c(=O)c3ccc(N4CCCN(C)CC4)nc3n3c2sc2ccccc23)cn1, the viability, T/C is 7.45%.

As to `COc1cc(C2c3cc4c(cc3C(OC3OC5COC(C)OC5C(O)C3O)C3COC(=O)C23)OCO4)cc(OC)c1O` (configuration not stated) + CN(C)c1ccc(Nc2c3ccc(NC(=O)CCN4CCCC4)cc3nc3cc(NC(=O)CCN4CCCC4)ccc23)cc1, the viability, T/C was 18.1%.

The assay is the same for the next values; noted with them: second compound 0.316 µM; first compound 0.0316 µM; stronger effect = lower value.
Turning to `CC1COCCN1c1cc(C2(O)CC3CCC(C2)O3)c2cnn(-c3ccn[nH]3)c2n1` (configuration not stated) + CN(C)c1ccc(Nc2c3ccc(NC(=O)CCN4CCCC4)cc3nc3cc(NC(=O)CCN4CCCC4)ccc23)cc1, the viability, T/C is 44.2%.

As for `COc1cccc2c1C(=O)c1c(O)c3c(c(O)c1C2=O)CC(O)(C(=O)CO)CC3OC1CC(N)C(O)C(C)O1` (configuration not stated) + Cc1cnc(CNC(=O)c2c(=O)c3ccc(N4CCCN(C)CC4)nc3n3c2sc2ccccc23)cn1, the viability, T/C was 45.8%.

Turning to `Nc1ccn(C2OC(CO)C(O)C2(F)F)c(=O)n1` (configuration not stated) + Cc1cnc(CNC(=O)c2c(=O)c3ccc(N4CCCN(C)CC4)nc3n3c2sc2ccccc23)cn1, the viability, T/C was 43.4%.

Turning to `COc1cc(C2c3cc4c(cc3C(OC3OC5COC(C)OC5C(O)C3O)C3COC(=O)C23)OCO4)cc(OC)c1O` (configuration not stated) + CN(C)c1ccc(Nc2c3ccc(NC(=O)CCN4CCCC4)cc3nc3cc(NC(=O)CCN4CCCC4)ccc23)cc1, the viability, T/C was 79.8%.

Still in this assay, the particulars now being: second compound 0.316 µM; first compound 0.1 µM; stronger effect = lower value.
As to `CC1COCCN1c1cc(C2(O)CC3CCC(C2)O3)c2cnn(-c3ccn[nH]3)c2n1` (configuration not stated) + CN(C)c1ccc(Nc2c3ccc(NC(=O)CCN4CCCC4)cc3nc3cc(NC(=O)CCN4CCCC4)ccc23)cc1, the viability, T/C is 17.4%.

With `COc1cccc2c1C(=O)c1c(O)c3c(c(O)c1C2=O)CC(O)(C(=O)CO)CC3OC1CC(N)C(O)C(C)O1` (configuration not stated) + Cc1cnc(CNC(=O)c2c(=O)c3ccc(N4CCCN(C)CC4)nc3n3c2sc2ccccc23)cn1, the viability, T/C was 35%.

`Nc1ccn(C2OC(CO)C(O)C2(F)F)c(=O)n1` (configuration not stated) + Cc1cnc(CNC(=O)c2c(=O)c3ccc(N4CCCN(C)CC4)nc3n3c2sc2ccccc23)cn1: the viability, T/C was 19.6%.

Consider `COc1cc(C2c3cc4c(cc3C(OC3OC5COC(C)OC5C(O)C3O)C3COC(=O)C23)OCO4)cc(OC)c1O` (configuration not stated) + CN(C)c1ccc(Nc2c3ccc(NC(=O)CCN4CCCC4)cc3nc3cc(NC(=O)CCN4CCCC4)ccc23)cc1, for which the viability, T/C was 71.9%.

Still in this assay, the particulars now being: second compound 0.316 µM; first compound 0.316 µM; stronger effect = lower value.
For the molecule `CC1COCCN1c1cc(C2(O)CC3CCC(C2)O3)c2cnn(-c3ccn[nH]3)c2n1` (configuration not stated) + CN(C)c1ccc(Nc2c3ccc(NC(=O)CCN4CCCC4)cc3nc3cc(NC(=O)CCN4CCCC4)ccc23)cc1, the viability, T/C was 12.6%.

As to `COc1cccc2c1C(=O)c1c(O)c3c(c(O)c1C2=O)CC(O)(C(=O)CO)CC3OC1CC(N)C(O)C(C)O1` (configuration not stated) + Cc1cnc(CNC(=O)c2c(=O)c3ccc(N4CCCN(C)CC4)nc3n3c2sc2ccccc23)cn1, the viability, T/C is 22.1%.

On to `Nc1ccn(C2OC(CO)C(O)C2(F)F)c(=O)n1` (configuration not stated) + Cc1cnc(CNC(=O)c2c(=O)c3ccc(N4CCCN(C)CC4)nc3n3c2sc2ccccc23)cn1, for which the viability, T/C was 11.2%.

Take `COc1cc(C2c3cc4c(cc3C(OC3OC5COC(C)OC5C(O)C3O)C3COC(=O)C23)OCO4)cc(OC)c1O` (configuration not stated) + CN(C)c1ccc(Nc2c3ccc(NC(=O)CCN4CCCC4)cc3nc3cc(NC(=O)CCN4CCCC4)ccc23)cc1: the viability, T/C is 46.8%.
